Test [1] concerns patient with progressive complement 3 glomerulonephritis (recurrent C3GN in a renal transplant). Description: Study of compound 1 in a patient with progressive C3 glomerulonephritis: eGFR, proteinuria, clinical condition. Format: in vivo, human. From the text:
Under the Special Needs program in the United Kingdom (which is similar to a compassionate use protocol in the US), a C3 glomerulonephritis patient received treatment with the orally administered complement inhibitor compound 1, following the protocol detailed below. The patient had refractory disease despite a kidney transplant and prior treatment with the broadly immunosuppressive drugs rituximab, cyclophosphamide, mycophenolate mofetil, tacrolimus, and steroids. Renal allograft biopsies were taken pre-dose, 2 and 7 months during therapy. The primary efficacy objective is to evaluate the efficacy of compound 1 based on change from baseline in eGFR (MDRD, Estimated Glomerular Filtration Rate) and proteinuria. The patient will have biopsy proven recurrent […] prior to start of dosing, and be deemed eligible based on the inclusion and exclusion criteria. Screening procedures will include recording of demographics, medical history, medication history, physical examination and vital signs, serum chemistry, hematology, urinalysis (including UPCR measurement), viral screening (if not performed within prior 12 weeks), and estimated glomerular filtration rate (eGFR) assessment based on serum creatinine. The baseline eGFR needs to be at least 25 mL/min/1.73 m^2 for study eligibility. On Day 1, the patient will start compound 1 treatment. Patients will take compound 1 30 mg orally twice daily for an initial period of 84 days. The patient will visit the study center on Days 1, 8, 15, 29, 57, and 85. The compound 1 dose will be taken in the morning optimally within one hour after breakfast and in the evening optimally within one hour after dinner. If the patient's clinical condition stabilizes or improves, and there are no adverse events preventing further treatment, the patient may be treated for another 84-day treatment cycle. The 84-day cycles may be repeated for a total of up to 4 cycles under this protocol. For the 84-day cycles after the first cycle, the patient will visit the study center every 4 weeks. There will be 4-week follow-up period after the patient stops the compound 1 treatment. Efficacy Assessments Include: • 1. First morning urinary PCR; • 2. eGFR by Modification of Diet in Renal Disease (MDRD) formula based on serum creatinine; • 3. Plasma and urine pharmacodynamic markers, e.g., MCP-1, C3a, C5a, properdin, and sC5b-9; • 4. Glomerular inflammation (e.g., crescents, inflammatory cell infiltrate, endocapillary proliferation) and C3 deposition in a follow-up renal biopsy sample; Pharmacokinetic Assessments

Test [2] has as its system glomeruli of renal allograft of C3 glomerulonephritis patient. Description: Renal allograft biopsies (histology, immunofluorescence, CD68 staining) pre-dose and at 2 and 7 months of compound 1 therapy. Format: in vivo, human. Conditions: for Endocapillary hypercellularity/total: pre-treatment 3/11; for CD68-positive cells/glomerulus: pre-treatment 11; for Immunoflourescence microscopy, IgM: pre-treatment trace; for glomerular inflammation: after treatment, PAS staining (FIG. 2). The source says: Under the Special Needs program in the United Kingdom (which is similar to a compassionate use protocol in the US), a C3 glomerulonephritis patient received treatment with the orally administered complement inhibitor compound 1, following the protocol detailed below. The patient had refractory disease despite a kidney transplant and prior treatment with the broadly immunosuppressive drugs rituximab, cyclophosphamide, mycophenolate mofetil, tacrolimus, and steroids. Renal allograft biopsies were taken pre-dose, 2 and 7 months during therapy. […] Protocol of the Study Aim Efficacy Assessments Include: • 1. First morning urinary PCR; • 2. eGFR by Modification of Diet in Renal Disease (MDRD) formula based on serum creatinine; • 3. Plasma and urine pharmacodynamic markers, e.g., MCP-1, C3a, C5a, properdin, and sC5b-9; • 4. Glomerular inflammation (e.g., crescents, inflammatory cell infiltrate, endocapillary proliferation) and C3 deposition in a follow-up renal biopsy sample; Pharmacokinetic Assessments Renal biopsies will be analyzed by periodic acid—Schiff (PAS) staining, immunofluorescence staining for C3, C5b-9, and potentially other markers. Electron microscopy may also be performed.

Molecules are shown by their SMILES. Entries after “also recorded” stand apart in the source; their conditions may differ.

With `Cc1ccc(NC(=O)[C@H]2CCCN(C(=O)c3c(C)cccc3F)[C@H]2c2ccc(NC3CCCC3)cc2)cc1C(F)(F)F` [compound 1], the “patient's condition in response to treatment” value in test [1] (C3 glomerulonephritis patient, refractory disease after kidney transplant, compound 1 30 mg orally twice daily) is listed as “improved”. Further, the eGFR decline result is “attenuated” in test [1] (after 1 month of treatment (FIG. 1)) and “attenuated or stopped” in test [1] (eGFR 83 mL/min/1.73 m^2 14 months prior, 46 mL/min/1.73 m^2 at start of treatment). Moreover, in test [1] (during compound 1 treatment), the eGFR entry is reported as “stabilized”. The Proteinuria drop result in test [1] (with compound 1 treatment, 30 mg orally twice daily) is “approximately 80%”. Besides, the Endocapillary hypercellularity/total in test [2] (2 months of therapy) is 0/36; in test [2] (7 months of therapy), 0/14. Besides, the values for the CD68-positive cells/glomerulus in test [2] (2 months of therapy) and in test [2] (7 months of therapy) were 2-3 cells/glomerulus and 1-2 cells/glomerulus, respectively. The “Immunoflourescence microscopy, IgM” value in test [2] (2 months of therapy) and in test [2] (7 months of therapy) was “neg” each time. The glomerular inflammation entry in test [2] was “reduction”; in test [2] (listed as Compound 1), “reduced”. For the same compound, in test [2] (on-treatment kidney biopsy compared to pre-treatment biopsy), the glomerular endocapillary proliferation entry was “clearance”. Further, in test [2] (on-treatment/repeat biopsies compared to pre-treatment, CD68 staining (FIG. 2)), the glomerular inflammatory macrophages result is on record as “marked decrease; also recorded: reduction”. In addition, in test [2] (repeat biopsies, PAS staining after treatment (FIG. 2)), the glomerular endocapillary hypercellularity entry is “resolution; also recorded: reduction”.

For the origin of these results see patent US11779576B2, “Method of treating C3 glomerulopathy” (CHEMOCENTRYX, INC., priority 2016, dated 2023).
